The text below walks through data of publication PMC10961359, “Targeting hexokinase 2 for oral cancer therapy: structure-based design and validation of lead compounds” (Frontiers in Pharmacology, 2024).

Usually GI50 stands for the concentration at which growth is held to half of that of the control. As usually defined, the inhibition is the relative decrease from the control value, in per cent. The term IC50 denotes the point on the concentration scale where inhibition reaches its midpoint.

In assay [1] the test system is FaDu cells. As to the kind of experiment: Annexin V FITC / propidium iodide apoptosis assay, FaDu. Conditions: 10 and 30 μM, 72 h. It counts as cell-based. Here is the method:
FaDu and Cal27 cells were treated with the test compounds (0.5 million cells per treatment) for 72 h, and harvested for cell cycle analysis (Cat# BD340242) and apoptosis analysis (Cat# BD556547) by flow cytometry according to manufacturer’s instructions.
To determine the effect of HK2 inhibition in the progression of the cell cycle, flow cytometric analysis of compound-treated FaDu and Cal27 cells was carried out 72 h post-treatment. Cell cycle analysis is carried out to quantify the DNA content and estimate the percentages of the cell population in different cell cycle phases via propidium iodide staining. […] To determine the apoptosis-inducing activity of HK2 inhibitors, 10 and 30 μM of compounds H2 and H10 treated FaDu and Cal27 cells were stained with annexin V conjugated with FITC, followed by propidium iodide staining.

In assay [2] the test system is FaDu cells. As to the kind of experiment: 2-NBDG glucose uptake assay (flow cytometry), FaDu. It is filed as cell-based. As to conditions: 10 μM and 30 μM, 72 h, vs DMSO control. The protocol: FaDu and Cal27 cells were treated with test compounds (0.2 million cells per treatment) and were incubated for 1 h with 100 μM of 2-NBDG (Invitrogen, N13195), in glucose free medium, washed with ice-cold PBS, and re-suspended in 500 μL of PBS and maintained on ice to perform flow cytometric analyses within 30 min. The mean fluorescent intensity (MFI) readout reflects the amount of fluorescent glucose analog taken up by the cells, providing insight into their glucose uptake capacity. The percent (%) cell population positive for glucose uptake (shown with a right shift of the histogram peaks) were also plotted for both the cell lines. For MMP analysis, cells were incubated with 200 nM of TMRE (Invitrogen, T669) for 30 min. For each measurement, data was collected for 10,000 events using a BD FACS Aria III (Becton Dickinson, San Jose, CA) instrument.
2-[N-(7-Nitrobenz-2-oxa-1,3-diaxol-4-yl) amino]-2-deoxyglucose (2-NBDG) uptake into cells happens via glucose transporters and post uptake 2-NBDG gets phosphorylated by hexokinases. Since cancer cells represent higher glycolytic activity, the inhibition of HK2 activity in cancer cells is actively reflected in the inhibition of 2-NBDG uptake ([Hung et al., 2022]; [Li et al., 2022]). […] In this assay, the MFI of intracellular 2-NBDG serves as a quantitative measure of cellular glucose uptake. […] This finding is further supported by the increased % population of 2-NBDG positive cells in Cal27 cells compared to FaDu cells (Figure 3).
A general note: A flow cytometer gives signals particle by particle.

The subject of another assay is Cal27 oral cancer cells. As to the kind of experiment: MTT antiproliferative assay, Cal27. Conditions: Homo sapiens, CAL-27; MTT, 72 h treatment; mean ± SEM; read-out: GI50 for Cal27. It is filed as cell-based. Here is the method:
FaDu cell line was cultured in RPMI-1640 medium containing L-glutamine (300 mg/L) and sodium bicarbonate (2 g/L), while Cal27, HEK293 and HFF-1 cell lines were cultured in DMEM medium containing glucose (4.5 g/L), L-glutamine (584 mg/L) and sodium bicarbonate (3.7 g/L). For gene expression and qPCR studies, RNA isolation was performed using Trizol (Thermo). The reagents and the primer sequences employed for the qPCR assays have been described previously ([Chakraborty et al., 2022]).
(§1) The hits derived from the docking study were sourced from either commercial suppliers or pre-existing compounds within our laboratory or were synthesized anew. The FaDu and Cal27 oral cancer cells were treated with the compounds for 72 h at concentrations of 3, 10, 30, and 100 μM. A post-treatment MTT assay was done to evaluate their antiproliferative activity. Table S2 represents the anti-proliferative and enzyme inhibitory activity of the compounds obtained as hits from the structure-based drug design strategy. […] Consequently, 50 μM of all the hit compounds were evaluated for their HK2 enzyme inhibitory activity. 50 μM of compounds were incubated with HK2 protein and the rate of reaction was assessed in kinetic mode (rate of conversion of NAD to NADH). The choice of 50 μM concentration was based primarily on MTT assays and GI50 calculation. The average GI50 values of the hit compounds against less sensitive FaDu cell line was approximately 50 μM. Considering this information, we reasoned that utilizing a concentration equivalent to the average GI50 would allow us to assess the maximum inhibitory effect of the compounds on HK2 enzyme activity. […] The same compounds have been previously reported by our team to have EGFR phosphorylation inhibitory potential and were coded as H2 (compound 14) and H10 (compound 11) ([Chakraborty et al., 2022]). […] Figures 1C,D show the lead compounds H2 and H10 at the active site of HK2 enzyme interacting via H-bonds with the amino acid residues.
In general terms: Tetrazolium dyes change colour on reduction, which living cells bring about.

In the next assay the target is T1, HK2 (Homo sapiens, UniProt P52789).
T1 construct: purchased Abcam ab211114
T1 sequence (P52789 1-917): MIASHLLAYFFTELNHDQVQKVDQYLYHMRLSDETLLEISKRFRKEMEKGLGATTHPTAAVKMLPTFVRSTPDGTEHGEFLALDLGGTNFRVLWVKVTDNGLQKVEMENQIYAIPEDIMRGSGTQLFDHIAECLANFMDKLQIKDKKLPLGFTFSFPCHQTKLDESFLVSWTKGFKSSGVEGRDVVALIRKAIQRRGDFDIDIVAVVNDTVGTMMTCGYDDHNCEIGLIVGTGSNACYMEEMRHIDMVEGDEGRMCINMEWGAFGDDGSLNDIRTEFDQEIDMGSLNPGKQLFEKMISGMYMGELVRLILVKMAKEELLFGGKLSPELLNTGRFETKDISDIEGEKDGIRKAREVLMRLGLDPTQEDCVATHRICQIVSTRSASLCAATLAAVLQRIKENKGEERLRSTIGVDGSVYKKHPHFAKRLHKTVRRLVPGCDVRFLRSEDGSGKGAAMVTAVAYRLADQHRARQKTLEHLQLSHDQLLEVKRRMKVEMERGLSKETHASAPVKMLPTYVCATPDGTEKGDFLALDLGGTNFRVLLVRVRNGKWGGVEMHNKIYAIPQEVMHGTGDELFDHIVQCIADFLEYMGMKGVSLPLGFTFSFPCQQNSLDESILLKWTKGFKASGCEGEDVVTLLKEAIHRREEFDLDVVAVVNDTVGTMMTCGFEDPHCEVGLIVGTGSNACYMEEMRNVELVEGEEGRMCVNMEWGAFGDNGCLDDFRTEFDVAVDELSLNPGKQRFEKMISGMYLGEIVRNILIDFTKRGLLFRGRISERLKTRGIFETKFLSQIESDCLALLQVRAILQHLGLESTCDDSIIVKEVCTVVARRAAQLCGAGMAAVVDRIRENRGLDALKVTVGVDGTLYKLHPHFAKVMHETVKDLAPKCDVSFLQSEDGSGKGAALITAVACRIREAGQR
Description: HK2 enzyme inhibition assay (Abcam kit ab211114). It is filed as biochemical. The protocol:
The HK2 enzyme inhibition assay was performed using an HK2 inhibitor assay kit (Abcam, ab211114) according to the manufacturer’s instructions. Initially, 50 µM compound concentration was used to perform the enzyme activity inhibition studies, after which IC50 of the top leads were determined.
as §1

Consider `COc1ccc(CNC(=O)c2nc3ccccc3s2)cc1O` [Compound 14, N-(3-hydroxy-4methoxybenzyl)benzo[d]thiazole-2-carboxamide], for which the apoptosis-inducing activity entry in the assay with FaDu cells [1] is “late apoptotic and necrotic effects”. In the assay on FaDu cells [2], the “2-NBDG MFI” value was “significant reduction”. In addition, the GI50 in the assay on Cal27 oral cancer cells stood at 21.7 µM. Moreover, the inhibition at 50 µM at HK2 (read-out: % inhibition of HK2 enzyme activity at 50 µM) amounted to 87%. In addition, the half-maximal inhibitory concentration (IC50) at HK2 (read-out: IC50 against HK2) came out at 2.94 ± 0.2 µM.
